Measured values taken from US20030153808A1, “Implantation rate using ff-mas” (priority 2000, published 2003).

What was measured:
human oocytes = settings: Grøndahl et al. 1999; cited from earlier work
mouse oocytes [1] = assay: Implantation rate after IVF: mouse oocyte cultivation with FF-MAS, in vitro-fertilization, tubal retransfer to foster mothers; format: cell-based
Procedure: Oocytes are obtained by puncture using a fine needle from the ovaries of mice primed with PMSG (pregnant mare serum gonadotrophin). The oocytes are cultivated for approx. 20 hours in a defined hypoxanthine-containing culture medium (Hx medium, see above) with FF-MAS (10 μM) (37° C.). The control oocytes are cultivated in defined culture medium without FF-MAS for the same period of time. Both the FF-MAS-oocytes and the control oocytes have begun meiosis maturation at the end of the culture period. All oocytes punctured on one day (from various mice) are pooled and distributed over the two study groups.
The oocytes cultivated in the mouse oocyte assay are further processed in this experiment. They are washed briefly 3× in a defined medium not containing FF-MAS and subsequently transferred into an IVF medium not containing FF-MAS. Then a defined number of capacitated sperms (obtained from the epididymides of a male mouse) is added and the oocytes are incubated with the sperms for approx. 4 hours in an incubator at 37° C. Following incubation the number of inseminated oocytes is counted.
1 day before the retransfer female recipient mice (foster mothers) in pre-estrus are mated with vasectomized males in order to trigger pseudogestation. One day later a vaginal check is performed. Animals with positive, sperm-free vaginal prop (successful mating) enter the study. This day is day 0 of gestation (=day 0 after the sterile copulation). Approx 10-15 inseminated oocytes are transferred into one tube (right) to the foster mothers on day 0 after the sterile copulation under anesthetization. The contralateral tube remains unused (check for pseudogestation). Only inseminated oocytes from the IVF experiment are used.
Retransfer is repeated until approx. 20 evaluable litters (with viable fetuses) have been obtained in all study groups (10 μM FF-MAS and one untreated control group).
The foster mothers are killed on day 17 of gestation. Uteri are removed. The number of viable and dead fetuses, the number of foster mothers, the number of pregnant foster mothers and the number of pregnant foster mothers with viable fetuses and with total fetal death, respectively, are counted.

adult, cycling rat = assay: Embryo implantation in the cycling rat after subcutaneous treatment; format: in vivo; settings: 20 mg/kg s.c. once daily d1-d8, mating d7, uteri checked d16, female Wistar rats, 5 animals/group; vehicle 10 ± 4
Procedure: A total of 15 sexually mature female Wistar rats with a body weight of 200-220 g and a 4-day cycle were used. The animals were divided in one control group (group 1) and two treatment groups (group 2-3) consisting of 5 animals/group, respectively.
Starting in metestrus (d1) animals were treated for eight days (d1-d8), once daily, subcutaneously with the test compounds (treatment groups) or vehicle (control group), respectively. At day 7, at proestrus, animals were mated. The success of mating was checked by the presence of sperms in the vagina at d8. At d16 animals were sacrificed. Uteri were removed and checked for the presence of implantation sides. In each animal the number of implantation sides were determined.
Control group 1 received vehicle alone [(ethanol/arachisoil, 1+9 (v/v)].
Group 2 received 20 mg/kg FF-MAS, prepared in an ethanol/arachisoil vehicle.
Group 2 received 20 mg/kg FF-MAS-succinate, prepared in an ethanol/arachisoil vehicle.

mouse oocytes [2] = settings: added to the culture medium; Hegele-Hartung et al. 1998; cited from earlier work

| Structure (SMILES) | nuclear and cytoplasmic maturation (human oocytes) | Number of pregnant foster mothers [n] (mouse oocytes [1]; 10 μM FF-MAS in culture medium, 69 foster mothers, control 43 of 153) | Number of pregnant foster mothers [%] (mouse oocytes [1]; 10 μM FF-MAS in culture medium, % of foster mothers, control 28) | Number of pregnant foster mothers with viable fetuses [%] (mouse oocytes [1]; 10 μM FF-MAS in culture medium, % of pregnant foster mothers, control 47) | Numbers of pregnant foster mothers with total fetal death [%] (mouse oocytes [1]; 10 μM FF-MAS in culture medium, % of pregnant foster mothers, control 54) | Number of pregnant foster mothers with viable fetuses [n] (mouse oocytes [1]; 10 μM FF-MAS in culture medium, control 20) | Numbers of pregnant foster mothers with total fetal death [n] (mouse oocytes [1]; 10 μM FF-MAS in culture medium, control 23) | Number of viable fetuses [n] (mouse oocytes [1]; 10 μM FF-MAS in oocyte culture medium approx. 20 h, IVF, retransfer, foster mothers killed day 17 of gestation, 69 foster mothers, control 45 of 153) | Number of implantation sides [x ± sd] d16 (adult, cycling rat) | fertilization rate (mouse oocytes [2]) |
| --- | --- | --- | --- | --- | --- | --- | --- | --- | --- | --- |
| CC(C)=CCC[C@@H](C)[C@H]1CC=C2C3=C(CC[C@@]21C)[C@@]1(C)CC[C@H](O)C(C)(C)[C@@H]1CC3 [FF-MAS, 4,4-dimethyl-5a-cholesta-8,14,24-triene-3β-ol] | improvement in nuclear and cytoplasmic maturation | 27 | 40 | 78 | 22 | 21 | 6 | 42 | 15 ± 3 | increase the fertilization rate |
| CC(C)=CCCC(C)C1CC=C2C3=C(CCC21C)C1(C)CCC(OC(=O)CCC(=O)O)C(C)(C)C1CC3 (centres unmarked) [FF-MAS-succinate] | – | – | – | – | – | – | – | – | 12 ± 2 | – |
